Earlier results, collected in article PMC10654029 (The Journal of Biological Chemistry, 2023).

Tests used:
[1] = system: Ba/F3 cells expressing METex14 F1200I; details: Ba/F3 cells expressing METex14 F1200I vs WT
[2] = system: Ba/F3 cells expressing METex14 L1195V; details: Ba/F3 cells expressing METex14 L1195V vs WT

Compound: CN1CCC(COc2cnc(-c3cccc(Cn4nc(-c5cccc(C#N)c5)ccc4=O)c3)nc2)CC1 [tepotinib]
- decrease of cellular potency compared with the WT [1]: ~15 fold
- decrease of cellular potency compared with the WT [2]: ~15 fold
